# Assay results as given in US8802104B2, “Parathyroid hormone receptor activation and stem and progenitor cell expansion” (The General Hospital Corporation, priority 2002, dated 2014).
# Assays:
# [1] = system: HSCs (CD45.2+ cells in bone marrow); test: Competitive transplantation into secondary recipients; format: in vivo; settings: donor mice PTH treated four weeks; read 6 weeks after transplant; P<0.05, FIG. 5f
# Method: For the competitive transplant studies, 4×10^5 BM MNCs, obtained from CD45.1^+ B6.SJL (Jackson Laboratories, Bar Harbor, Me.) mice were mixed with 2×10^5 cells from mock injected or PTH injected CD45.2^+ C57Bl/6 mice. Recipient B6.SJL mice that had been lethally irradiated 24 hours previously with 10Gy of radiation (^137Cs source) were injected with cells. After 6 weeks, the mice were euthanized with CO2, the BM was removed and flushed with fully supplemented Iscove's Medium. The relative contribution of engraftment from the different cell sources was assessed by flow cytometry utilizing anti-CD45.1 and anti-CD45.2 antibodies (Pharmingen, San Diego, Calif.). To assess the effects of PTH administration post transplantation, recipient C57Bl/6 mice were lethally irradiated and then injected with 2×10^5 BM MNCs from a donor B6.SJL mouse. Twenty-four hours following the injection of the cells, mice were injected with PTH or mock injected as described above for four weeks.
# As treatment of stromal cells with PTH led to an increase in the ability of the stromal cell population to support hematopoietic stem cells, it was investigated whether these effects could be recapitulated in vivo. Wild-type C57Bl/6 mice were injected daily with PTH using an intermittent dosing schedule known to increase osteoblasts, and the frequencies of LTC-ICs in the bone marrow were measured. […]
# [2] = system: HSCs in the peripheral circulation; test: G-CSF mobilization of HSCs into peripheral circulation after chemotherapy; format: in vivo, C57Bl/6 mice
# Method: Wild-type C57Bl/6 mice were treated with 5 mg of cyclophosphamide (Day 1). The day following injection of cyclophosphamide, mice received no treatment or were treated for 8 days with G-CSF (5 μg/day), 11 days with PTH (80 μg/kg/day) or a combination of G-CSF plus PTH. Mice that received a combination of both G-CSF and PTH received G-CSF treatment for 8 days and PTH treatment for 11 days. Following this treatment protocol, mice were injected with cyclophosphamide on Day 15 and treated with G-CSF, PTH or G-CSF and PTH as described above. The treatment protocol was then repeated for two subsequent cycles, as outlined in FIG. 7.
# At the end of the four-cycle treatment with cyclophosphamide and G-CSF/PTH, the bone marrow was removed from the treated mice and competitive transplants into B6.SJL mice were performed to measure the maintenance of the HSC pool in the bone marrow. This involved mixing 5×10^5 BM cells from the treated C57Bl/6 mice (CD45.2) with 2.5×10^5 BM cells from the B6.SJL mice (CD45.1). These cells were then injected into lethally irradiated B6.SJL mice. Eighteen weeks following injection of the cells, peripheral blood was collected from the mice and the relative contribution of the HSCs from the treated animals was measured by flow cytometry for the CD45.2^+ cells. To assess the ability of the HSCs to be mobilized into the peripheral circulation, one week following treatment mice were mobilized with G-CSF (5 μg/day) for 5 days. Peripheral blood (300 μl) was collected from these mice and mixed with 2.5×10^5 BM cells from a B6.SJL mouse. These cells were injected into a lethally irradiated B6.SJL host. Eighteen weeks following injection of the cells, peripheral blood was collected from the mice and the relative contribution of the HSCs from the treated animals was measured by flow cytometry for the CD45.2^+ cells.
# [3] = system: C-1498/GFP leukemia cells; test: Leukemia outgrowth in niche-stimulated animals; format: in vivo, mice
# Description: The kinetics of leukemia cell engraftment, growth, and maturation were studied in normal mice. In an effort to analyze the growth and fate of C-1498 leukemia cells transplanted into mice, the cells were transduced with a retrovirus expressing GFP(C-1498/GFP). This allows easy tracking of these cells in vivo using GFP as a marker (FIG. 9a). The acute myelogenous leukemia cell line C-1498, a spontaneously-arising acute myelomonocytic leukemia derived from C57/BL6 (H2-b) mice, is easily transplantable, can be cultured in vitro, and infected with retroviruses.
# Attention was subsequently directed to determining how activation of the stem cell niche with PTH might affect leukemia growth and maturation. To investigate the kinetics of leukemia outgrowth in “niche-stimulated” animals, animals were pre-stimulated with PTH at 80 μg/kg/day (versus saline alone) for one month. Mice were then lethally irradiated at 10 Gray, and then transplanted with 50,000 leukemia cells (GFP+) and 1×10^6 normal bone marrow cells (GFP-) (FIG. 10a). At 15 days post-transplantation, bone marrow was harvested, and, then, GFP-positive cells were scored as percentage and in absolute number. Since the absolute number of total cells was not statistically different between both groups, only the percentage figures are shown in FIG. 10b, left panel.
# In mock-treated animals, osteoblasts and osteoprogenitors, identified at PTH-receptor positive cells, were found lining the endostial surfaces of bone.
# leukemic cells = test: Direct effect of PTH on leukemic cells in vitro; format: cell-based
substance,measurement,setting,value
Rat PTH (1-34),"increase in HSCs, competitive transplantation",[1],> 2 fold
same,mobilization of HSCs into the circulation with G-CSF,"[2]; no supportive G-CSF during chemotherapy, prior PTH treatment",increased with prior PTH treatment
same,mobilization of HSCs into the peripheral circulation,[2]; supportive G-CSF with concurrent PTH,partially reversed
same,"localisation of PTH-r positive cells (osteoblasts, osteoprogenitors)","[3]; 10 micron bone sections, PTH-treated animals",migrated extensively into the marrow
same,GFP-positive leukemia cells in bone sections (histology),"[3]; 10 micron bone sections, PTH-treated vs mock-treated",markedly reduced
same,number of GFP-positive leukemia initiating cells in bone marrow,"[3]; PTH 80 μg/kg/day one month pre-stimulation, 15 days post-transplantation, 3 of 3 experiments",markedly reduced
same,kinetics of normal hematopoiesis,"[3]; PTH treated animal, FIG. 11",did not change
same,direct effect on leukemic cells,leukemic cells,did not directly affect
